What all share (type): biochemical
Test [1] deals with T1, TEC (Homo sapiens, UniProt P42680).
T1 sequence (P42680 1-631): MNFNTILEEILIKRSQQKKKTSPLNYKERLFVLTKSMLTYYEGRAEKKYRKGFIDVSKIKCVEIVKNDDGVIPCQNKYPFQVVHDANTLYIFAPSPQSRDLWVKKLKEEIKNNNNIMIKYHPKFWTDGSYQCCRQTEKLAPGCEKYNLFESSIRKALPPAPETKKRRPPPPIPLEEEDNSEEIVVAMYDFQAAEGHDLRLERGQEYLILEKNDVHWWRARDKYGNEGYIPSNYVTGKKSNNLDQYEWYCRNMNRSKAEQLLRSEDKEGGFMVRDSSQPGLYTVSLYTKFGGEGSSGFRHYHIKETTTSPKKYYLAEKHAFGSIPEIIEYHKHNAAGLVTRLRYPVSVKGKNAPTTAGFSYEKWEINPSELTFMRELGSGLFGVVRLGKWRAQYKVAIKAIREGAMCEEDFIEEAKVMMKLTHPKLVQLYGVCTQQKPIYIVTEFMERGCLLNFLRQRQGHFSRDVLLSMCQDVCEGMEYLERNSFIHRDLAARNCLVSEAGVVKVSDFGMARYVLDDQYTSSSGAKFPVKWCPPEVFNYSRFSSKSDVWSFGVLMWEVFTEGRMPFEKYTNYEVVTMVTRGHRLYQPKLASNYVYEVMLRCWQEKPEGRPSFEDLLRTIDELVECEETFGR
As to the kind of experiment: Inhibition of a panel of kinases, in vitro HotSpot kinase assay: TEC. To be noted: E compounds, Table 17. As to the method:
(§1) The degree of inhibition of a panel of kinases is determined using the in vitro HotSpot kinase assay (purified enzymes, ^33P-ATP, an appropriate substrate and 1 μM ATP).

For test [2], the target named is T2, BTK-WT (Homo sapiens, UniProt Q06187).
T2 construct: purified from insect cells as a full-length construct containing an N-terminal 6X-His tag; His6 (N); made in house; host or cells: insect cells (baculovirus Sf21 in Method B)
T2 sequence (Q06187 whole entry): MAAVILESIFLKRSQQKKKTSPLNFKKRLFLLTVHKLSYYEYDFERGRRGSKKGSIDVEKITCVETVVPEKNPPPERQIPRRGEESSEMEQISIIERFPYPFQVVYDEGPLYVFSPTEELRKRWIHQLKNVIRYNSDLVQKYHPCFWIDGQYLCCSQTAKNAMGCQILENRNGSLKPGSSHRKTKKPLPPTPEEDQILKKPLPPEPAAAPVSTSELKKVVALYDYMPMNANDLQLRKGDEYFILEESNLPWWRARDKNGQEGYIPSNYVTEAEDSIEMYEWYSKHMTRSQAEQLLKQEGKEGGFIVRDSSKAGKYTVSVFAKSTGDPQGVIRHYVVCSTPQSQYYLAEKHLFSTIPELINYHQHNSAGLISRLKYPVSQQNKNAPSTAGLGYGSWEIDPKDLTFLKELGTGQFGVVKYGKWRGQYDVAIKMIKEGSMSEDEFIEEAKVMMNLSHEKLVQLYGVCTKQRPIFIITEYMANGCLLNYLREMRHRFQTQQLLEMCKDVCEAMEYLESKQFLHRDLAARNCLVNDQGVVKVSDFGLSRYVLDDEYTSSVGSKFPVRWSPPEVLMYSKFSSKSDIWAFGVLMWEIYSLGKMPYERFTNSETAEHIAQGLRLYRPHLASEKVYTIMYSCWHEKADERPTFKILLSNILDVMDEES
Put plainly: Btk in vitro inhibitory activity (one of Method A TR-FRET, Method B electrophoretic mobility shift, Method C radiometric filter binding). For orientation: A gel shift assay detects complexes by their altered migration in electrophoresis.

Test [3] deals with T3, ITK (Homo sapiens, UniProt Q08881).
T3 sequence (Q08881 1-620): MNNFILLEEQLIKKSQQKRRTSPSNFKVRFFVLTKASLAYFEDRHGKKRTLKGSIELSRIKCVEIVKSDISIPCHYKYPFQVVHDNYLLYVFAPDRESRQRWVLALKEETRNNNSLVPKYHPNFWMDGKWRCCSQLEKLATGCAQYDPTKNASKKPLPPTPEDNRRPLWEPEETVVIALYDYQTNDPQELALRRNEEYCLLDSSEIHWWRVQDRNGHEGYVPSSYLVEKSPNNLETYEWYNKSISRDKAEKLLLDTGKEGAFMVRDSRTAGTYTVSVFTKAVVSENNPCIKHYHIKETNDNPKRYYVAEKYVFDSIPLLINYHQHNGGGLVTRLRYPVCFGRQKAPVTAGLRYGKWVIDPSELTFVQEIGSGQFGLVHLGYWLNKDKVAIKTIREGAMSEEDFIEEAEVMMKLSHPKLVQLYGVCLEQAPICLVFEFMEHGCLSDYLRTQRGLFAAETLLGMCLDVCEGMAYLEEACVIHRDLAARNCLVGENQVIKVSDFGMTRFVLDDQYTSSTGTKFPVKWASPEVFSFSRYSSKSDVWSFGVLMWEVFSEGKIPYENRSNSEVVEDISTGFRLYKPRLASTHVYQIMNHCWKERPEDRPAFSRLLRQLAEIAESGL
Put plainly: Inhibition of a panel of kinases, in vitro HotSpot kinase assay: ITK. The settings on record: E compounds, Table 17. The procedure:
as §1

For test [4], the target named is T4, JAK3 (Homo sapiens, UniProt P52333).
T4 sequence (P52333 1-1124): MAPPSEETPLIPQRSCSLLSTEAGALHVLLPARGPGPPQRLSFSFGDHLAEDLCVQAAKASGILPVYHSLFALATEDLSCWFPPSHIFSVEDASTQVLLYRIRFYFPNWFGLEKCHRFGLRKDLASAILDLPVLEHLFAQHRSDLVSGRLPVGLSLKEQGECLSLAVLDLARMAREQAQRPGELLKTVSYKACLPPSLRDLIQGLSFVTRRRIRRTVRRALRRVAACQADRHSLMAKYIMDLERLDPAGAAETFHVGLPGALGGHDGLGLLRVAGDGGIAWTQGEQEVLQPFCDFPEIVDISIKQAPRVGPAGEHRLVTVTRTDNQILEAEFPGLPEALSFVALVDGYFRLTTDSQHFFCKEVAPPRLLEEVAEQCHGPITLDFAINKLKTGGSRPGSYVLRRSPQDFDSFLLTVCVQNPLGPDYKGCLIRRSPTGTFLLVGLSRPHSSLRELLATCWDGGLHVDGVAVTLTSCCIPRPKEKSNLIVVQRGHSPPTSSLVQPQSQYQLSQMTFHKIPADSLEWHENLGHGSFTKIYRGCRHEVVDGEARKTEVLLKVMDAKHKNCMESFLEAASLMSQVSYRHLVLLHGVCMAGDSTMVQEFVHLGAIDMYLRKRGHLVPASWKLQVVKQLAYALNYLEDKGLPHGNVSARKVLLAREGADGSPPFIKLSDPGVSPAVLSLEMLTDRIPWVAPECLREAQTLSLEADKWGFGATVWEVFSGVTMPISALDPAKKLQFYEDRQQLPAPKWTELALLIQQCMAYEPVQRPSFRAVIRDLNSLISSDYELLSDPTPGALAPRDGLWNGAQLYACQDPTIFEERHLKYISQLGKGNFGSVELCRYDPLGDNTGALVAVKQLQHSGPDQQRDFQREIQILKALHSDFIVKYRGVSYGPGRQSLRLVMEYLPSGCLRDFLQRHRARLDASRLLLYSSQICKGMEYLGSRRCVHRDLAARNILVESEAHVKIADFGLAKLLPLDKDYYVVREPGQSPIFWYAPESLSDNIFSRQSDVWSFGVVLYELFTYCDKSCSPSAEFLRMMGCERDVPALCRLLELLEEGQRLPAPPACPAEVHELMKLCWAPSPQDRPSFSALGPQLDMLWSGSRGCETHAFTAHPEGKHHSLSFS
Put plainly: Inhibition of a panel of kinases, in vitro HotSpot kinase assay: JAK3. The settings on record: 1 μM ATP, read-out: JAK3 (IC50).

The target of test [5] is LCK (Homo sapiens, UniProt P06239). As to the kind of experiment: Inhibition of a panel of kinases, in vitro HotSpot kinase assay: LCK. To be noted: 1 μM ATP, read-out: LCK (IC50).
Sequence of LCK (P06239 whole entry): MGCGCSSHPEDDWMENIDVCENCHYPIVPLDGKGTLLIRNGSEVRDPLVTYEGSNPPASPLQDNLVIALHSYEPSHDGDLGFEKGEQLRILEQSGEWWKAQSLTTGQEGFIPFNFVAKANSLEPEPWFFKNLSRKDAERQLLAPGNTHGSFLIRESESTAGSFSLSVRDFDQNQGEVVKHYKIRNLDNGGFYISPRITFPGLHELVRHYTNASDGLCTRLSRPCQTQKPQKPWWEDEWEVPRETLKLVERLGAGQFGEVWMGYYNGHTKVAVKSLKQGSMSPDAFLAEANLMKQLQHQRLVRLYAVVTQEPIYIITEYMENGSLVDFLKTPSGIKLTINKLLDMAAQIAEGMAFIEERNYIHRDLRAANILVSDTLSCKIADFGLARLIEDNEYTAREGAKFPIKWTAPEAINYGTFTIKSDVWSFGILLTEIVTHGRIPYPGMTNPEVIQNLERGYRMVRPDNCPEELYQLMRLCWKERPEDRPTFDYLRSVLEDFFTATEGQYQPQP
[6] abbreviates: E compounds, Table 17, read-out: IC50 BTK-WT.
Setting [7] is: Table 12, Formula C-I, read-out: BTK-WT (IC50).
Setting [8] is: Table 10, Formula A-I, read-out: BTK-WT (IC50).

The values that follow come from patent US20210070748A1, “INHIBITORS OF BRUTONS TYROSINE KINASE” (Pharmacyclics LLC, priority 2015, published 2021).

One may read the pIC50 as the IC50 on a negative log10 scale, so that one unit is a factor of ten.

pIC50: −log10 of the molar value. Counter-ions that a name gives are not always drawn. Like-named read-outs stand apart in the source and are kept apart here. Where only a bound is given, the exact number is not on record here.

`C=CC(=O)N1CCC[C@@H](Nc2nnc(C(N)=O)c(Nc3cccc(C(=O)N4CCCCC4)c3)n2)C1` [Example E-87, (R)-3-(1-acryloylpiperidin-3-ylamino)-5-(3-(piperidine-1-carbonyl)phenylamino)-1,2,4-triazine-6-carboxamide]: the figures for the pIC50 in test [1], in test [2] (setting [6]) and in test [3] were at least 8.00, at least 8.00 and 6.00 to 7.00, respectively.
With `Cc1cc(Nc2nc(N(C)[C@@H]3CCN(C(=O)c4ccc(C(O)(C(F)(F)F)C(F)(F)F)cc4)C3)nnc2C(N)=O)sn1` [Example E-13, (R)-3-((1-(4-(1,1,1,3,3,3-hexafluoro-2-hydroxypropan-2-yl)benzoyl)pyrrolidin-3-yl)(methyl)amino)-5-(3-methylisothiazol-5-ylamino)-1,2,4-triazine-6-carboxamide], the negative-log IC50 (pIC50) in test [1] is 6.00 to 7.00; in test [2] (setting [6]), 7.00 to 8.00; in test [3], 6.00 to 7.00.
With `C=CC(=O)N1CCC[C@@H](Nc2nnc(C(N)=O)c(Nc3cccc(C(=O)N(C)C)c3)n2)C1` [Example E-83, (R)-3-(1-acryloylpiperidin-3-ylamino)-5-(3-(dimethylcarbamoyl)phenylamino)-1,2,4-triazine-6-carboxamide], the negative-log IC50 (pIC50) is at least 8.00 in test [1], at least 8.00 in test [2] (setting [6]) and 7.00 to 8.00 in test [3].
For the compound `C=CC(=O)N1CCC[C@@H](Nc2nnc(C(N)=O)c(Nc3ccc(Cn4cncn4)cc3)n2)C1` [Example E-52, (R)-5-(4-((1H-1,2,4-triazol-1-yl)methyl)phenyl-amino)-3-(1-acryloylpiperidin-3-ylamino)-1,2,4-triazine-6-carboxamide], the pIC50 in test [1], in test [2] (setting [6]) and in test [3] was at least 8.00 each time.
For `C=CC(=O)N1CC[C@@H](Nc2nnc(C(N)=O)c(Nc3cccc(C(=O)Nc4ccc(C(C)C)c(C)c4)c3)n2)C1` [Example C-30, (R)-3-(1-acryloylpyrrolidin-3-ylamino)-5-(3-(4-isopropyl-3-methylphenyl-carbamoyl)phenyl-amino)-1,2,4-triazine-6-carboxamide], the negative logarithm of the IC50 (pIC50) in test [2] (setting [7]) is at least 7.00; in test [4] (Table 12, Formula C-I), 6.00 to 7.00; in test [5] (Table 12, Formula C-I) it was under 5.00.
Regarding `Cc1cc(Nc2nc(N3CCC(CNC(=O)N(C)C)CC3)cnc2C(N)=O)sn1` [Example A-75, 5-(4-{[(dimethylcarbamoyl)amino]methyl}piperidin-1-yl)-3-[(3-methyl-1,2-thiazol-5-yl)amino]pyrazine-2-carboxamide], the pIC50 was at least 7.00 in test [2] (setting [8]); over 7.00 in test [4] (Table 10, Formula A-I); 6.00 to 7.00 in test [5] (Table 10, Formula A-I).
Turning to `NC(=O)c1ncc(N2CCC[C@@H](NC(=O)Nc3ccccc3)C2)nc1Nc1ccc(C2CCN(C3CCCC3)CC2)cc1` [Example A-2, 3-{[4-(1-cyclopentylpiperidin-4-yl)phenyl]amino}-5-[(3R)-3-[(phenylcarbamoyl)amino]piperidin-1-yl]pyrazine-2-carboxamide hydrochloride], the pIC50 was at least 7.00 in test [2] (setting [8]); 6.00 to 7.00 in test [4] (Table 10, Formula A-I); over 7.00 in test [5] (Table 10, Formula A-I).
Consider `Cc1cc(Nc2nc(N(C)CC3CCN(C(=O)N(C)C)CC3)cnc2C(N)=O)sn1` [Example C-14, 5-({[1-(dimethylcarbamoyl)piperidin-4-yl]methyl}(methyl)amino)-3-[(3-methyl-1,2-thiazol-5-yl)amino]pyrazine-2-carboxamide], for which the negative-log IC50 (pIC50) in test [2] (setting [7]) was 6.00 to 7.00; in test [4] (Table 12, Formula C-I), 5.00 to 6.00; in test [5] (Table 12, Formula C-I), 5.00 to 6.00.
Turning to `Cc1cc(Nc2nc(N3CCC[C@@H](NC(=O)c4ccc(N(C)C)nc4)C3)cnc2C(N)=O)sn1` [Example A-34, 5-[(3R)-3-[6-(dimethylamino)pyridine-3-amido]piperidin-1-yl]-3-[(3-methyl-1,2-thiazol-5-yl)amino]pyrazine-2-carboxamide], the pIC50 in test [2] (setting [8]) is at least 7.00; in test [4] (Table 10, Formula A-I), 5.00 to 6.00; in test [5] (Table 10, Formula A-I), 5.00 to 6.00.
For the compound `Cc1cc(Nc2nc(N(C)CC3CCN(C(=O)c4ccccc4)CC3)cnc2C(N)=O)sn1` [Example C-15, 5-{[(1-benzoylpiperidin-4-yl)methyl](methyl)amino}-3-[(3-methyl-1,2-thiazol-5-yl)amino]pyrazine-2-carboxamide], the pIC50 in test [2] (setting [7]) was 6.00 to 7.00; in test [4] (Table 12, Formula C-I), 5.00 to 6.00; in test [5] (Table 12, Formula C-I) it was 5.00 to 6.00.
With `Cc1cc(Nc2nc(N3CCC[C@@H](NC(=O)c4ccc(C5CC5)cc4)C3)cnc2C(N)=O)sn1` [Example A-32, 5-[(3R)-3-(4-cyclopropylbenzamido)piperidin-1-yl]-3-[(3-methyl-1,2-thiazol-5-yl)amino]pyrazine-2-carboxamide], the negative-log IC50 (pIC50) was at least 7.00 in test [2] (setting [8]); 5.00 to 6.00 in test [4] (Table 10, Formula A-I); under 5.00 in test [5] (Table 10, Formula A-I).
Regarding `Cc1cc(Nc2nc(N3CCC[C@@H](NC(=O)c4cccc(N(C)C)c4)C3)cnc2C(N)=O)sn1` [Example A-27, (5-[(3R)-3-[3-(dimethylamino)benzamido]piperidin-1-yl]-3-[(3-methyl-1,2-thiazol-5-yl)amino]pyrazine-2-carboxamide hydrochloride], the negative-log IC50 (pIC50) in test [2] (setting [8]) is at least 7.00; in test [4] (Table 10, Formula A-I) it was 5.00 to 6.00; in test [5] (Table 10, Formula A-I), 6.00 to 7.00.
For `CCn1ccc2cc(C(=O)N[C@@H]3CCCN(c4cnc(C(N)=O)c(Nc5cc(C)ns5)n4)C3)ccc21` [Example A-31, N-[(3R)-1-{5-carbamoyl-6-[(3-methyl-1,2-thiazol-5-yl)amino]pyrazin-2-yl}piperidin-3-yl]-1-ethyl-1H-indole-5-carboxamide] the same measures were at least 7.00, 6.00 to 7.00 and 6.00 to 7.00.
